Experimental data as given in patent US5101048A, “β-D-phenylthioxylosides, their method of preparation and their use as therapeutic agents” (Fournier Industrie et Sante, priority 1988, dated 1992).

How the values were obtained:
[1] = Venous thrombosis: venous stasis under hypercoagulation (Wessler), thrombus removed and weighed; assay type: in vivo, male Wistar rats; settings: Rattus norvegicus, po, suspension in PEG 400, thrombosis induced 4 hours after treatment; for inhibition in vivo at 3 mg/kg: 3 mg/kg administered orally; for inhibition in vivo at 12.5 mg/kg: 12.5 mg/kg administered orally
Description: A venous stasis under hypercoagulation is produced according to the technique described by WESSLER et al. (J. Applied Physiol. 1959, p. 943-946). As in the technique described by J. HAUPMAN et al. (Thrombosis and Haemostasis 43(2), 1980, p. 118), the hypercoagulant used is a solution of activated factor X (Xa) supplied by Flow Laboratories (71 Knat per 12.5 ml of physiological serum).
The study is performed on unfasted male Wistar rats weighing 250 to 280 g, divided into groups of 10 animals each. The products to be tested are administered orally as a suspension in PEG 400. A thrombosis is induced 4 hours after this treatment and the thrombus formed is removed and weighed.
The results obtained at doses of 3 mg/kg or 12.5 mg/kg, administered orally, have been collated in Table II. The results obtained with the known products of the above-mentioned prior art have also been collated in this Table.

[2] = as above; assay type: in vivo, male Wistar rats; settings: 50 mg/kg administered orally

Compound	inhibition in vivo at 3 mg/kg [1]	inhibition in vivo at 12.5 mg/kg [1]	% inhibition at 50 mg/kg (footnote) [2]
N#Cc1ccc(S[C@@H]2SC[C@@H](O)[C@H](O)[C@H]2O)cc1 [Example 1, 4-cyanophenyl 1,5-dithio-β-D-xylopyranoside]	53%	90%	
CC(=O)O[C@@H]1[C@@H](OC(C)=O)[C@H](Sc2ccc(C#N)cc2)SC[C@H]1OC(C)=O [Example 1a, 4-cyanophenyl 2,3,4-tri-O-acetyl-1,5-dithio-β-D-xylopyranoside]	30%	90%	
O=[N+]([O-])c1ccc(S[C@@H]2SC[C@@H](O)[C@H](O)[C@H]2O)cc1 [Example 2, 4-nitrophenyl 1,5-dithio-β-D-xylopyranoside]	35%	78%	
O[C@@H]1[C@@H](O)[C@H](Sc2ccc3ccccc3c2)SC[C@H]1O [Example 3, 2-naphthalenyl 1,5-dithio-β-D-xylopyranoside]		38%	
O[C@@H]1[C@@H](O)[C@H](Sc2ccc(C(F)(F)F)cc2)SC[C@H]1O [Example 4, 4-trifluoromethylphenyl 1,5-dithio-β-D-xylopyranoside]		66%	
N#Cc1cccc(S[C@@H]2SC[C@@H](O)[C@H](O)[C@H]2O)c1 [Example 5, 3-cyanophenyl 1,5-dithio-β-D-xylopyranoside]	28%	79.5%	
N#Cc1ccccc1S[C@@H]1SC[C@@H](O)[C@H](O)[C@H]1O [Example 6, 2-cyanophenyl 1,5-dithio-β-D-xylopyranoside]	35%	88.6%	
O=[N+]([O-])c1ccccc1S[C@@H]1SC[C@@H](O)[C@H](O)[C@H]1O [Example 7, 2-nitrophenyl 1,5-dithio-β-D-xylopyranoside]	33%	96.7%	
N#Cc1ccc2cc(S[C@@H]3SC[C@@H](O)[C@H](O)[C@H]3O)ccc2c1 [Example 8, 2-(6-cyanonaphthalenyl) 1,5-dithio-β-D-xylopyranoside]	31%	94.7%	
O[C@@H]1[C@@H](O)[C@H](Sc2ccccc2)SC[C@H]1O [Example 9, phenyl 1,5-dithio-β-D-xylopyranoside]		11%	82%
COc1cc(S[C@@H]2SC[C@@H](O)[C@H](O)[C@H]2O)cc(OC)c1OC [Example 10, 3,4,5-trimethoxyphenyl 1,5-dithio-β-D-xylopyranoside]		36.5%	
COc1cc(S[C@@H]2SC[C@@H](OC(C)=O)[C@H](OC(C)=O)[C@H]2OC(C)=O)cc(OC)c1OC [Example 10a, 3,4,5-trimethoxyphenyl 2,3,4-tri-O-acetyl-1,5-dithio-β-D-xylopyranoside]		62%	
CC(=O)c1ccc(S[C@@H]2SC[C@@H](O)[C@H](O)[C@H]2O)cc1 [Example 11, 4-acetylphenyl 1,5-dithio-β-D-xylopyranoside]	47%	98.3%	
O=[N+]([O-])c1cccc(S[C@@H]2SC[C@@H](O)[C@H](O)[C@H]2O)c1 [Example 12, 3-nitrophenyl 1,5-dithio-β-D-xylopyranoside]		69%	
O[C@@H]1[C@@H](O)[C@H](Sc2ccccc2C(F)(F)F)SC[C@H]1O [Example 13, 2-trifluoromethylphenyl 1,5-dithio-β-D-xylopyranoside]		23%	
N#Cc1ccc(-c2ccc(S[C@@H]3SC[C@@H](O)[C@H](O)[C@H]3O)cc2)cc1 [Example 14, 4-(4-cyanophenyl)phenyl 1,5-dithio-β-D-xylopyranoside]	27%	86%	
N#Cc1ccc(S[C@@H]2SC[C@@H](O)[C@H](O)[C@H]2O)c(C#N)c1 [Example 16, 2,4-dicyanophenyl 1,5-dithio-β-D-xylopyranoside]	42.5%	99.5%	
CC(=O)O[C@@H]1[C@@H](OC(C)=O)[C@H](Sc2ccc(C#N)cc2C#N)SC[C@H]1OC(C)=O [Example 16a, 2,4-dicyanophenyl 2,3,4-tri-O-acetyl-1,5-dithio-β-D-xylopyranoside]		72.8%	
N#Cc1cc(C#N)c(S[C@@H]2SC[C@@H](O)[C@H](O)[C@H]2O)c(C#N)c1 [Example 17, 2,4,6-tricyanophenyl 1,5-dithio-β-D-xylopyranoside]	8%	40%	
Nc1ccc(S[C@@H]2SC[C@@H](O)[C@H](O)[C@H]2O)cc1 [Example 18, 4-aminophenyl 1,5-dithio-β-D-xylopyranoside]	30%	93%	

Compound	inhibition in vivo at 3 mg/kg [1]	inhibition in vivo at 12.5 mg/kg [1]	% inhibition at 50 mg/kg (footnote) [2]
CC(=O)Nc1ccc(S[C@@H]2SC[C@@H](O)[C@H](O)[C@H]2O)cc1 [Example 19, 4-acetamidophenyl 1,5-dithio-β-D-xylopyranoside]	61%	93%	
CC(=O)Nc1ccc(S[C@@H]2SC[C@@H](OC(C)=O)[C@H](OC(C)=O)[C@H]2OC(C)=O)cc1 [Example 19a, 4-acetamidophenyl 2,3,4-tri-O-acetyl-1,5dithio-β-D-xylopyranoside]	66%		
O=C(c1ccc(S[C@@H]2SC[C@@H](O)[C@H](O)[C@H]2O)cc1)C(F)(F)F [Example 20, 4-trifluoroacetylphenyl 1,5-dithio-β-D-xylopyranoside]	49%		
Nc1cccc(S[C@@H]2SC[C@@H](O)[C@H](O)[C@H]2O)c1 [Example 21, 3-aminophenyl 1,5-dithio-β-D-xylopyranoside]	31%		
N#Cc1ccc(O[C@@H]2SC[C@@H](O)[C@H](O)[C@H]2O)cc1 [Example 22, 4-cyanophenyl 5-thio-β-D-xylopyranoside]	57%		
CC(=O)O[C@@H]1[C@@H](OC(C)=O)[C@H](OC(C)=O)CS[C@H]1Oc1ccc(C#N)cc1 [Example 22a, 4-cyanophenyl 2,3,4-tri-O-acetyl-5-thio-β-D-xylopyranoside]	66%		
O=[N+]([O-])c1ccc(O[C@@H]2SC[C@@H](O)[C@H](O)[C@H]2O)cc1 [Example 23, 4-nitrophenyl 5-thio-β-D-xylopyranoside]	37.5%	94%	
CC(=O)O[C@@H]1[C@@H](OC(C)=O)[C@H](OC(C)=O)CS[C@H]1Oc1ccc([N+](=O)[O-])cc1 [Example 23a, 4-nitrophenyl 2,3,4-tri-O-acetyl-5-thio-β-D-xylopyranoside]	44%		
CC(=O)c1ccc(O[C@@H]2SC[C@@H](O)[C@H](O)[C@H]2O)cc1 [Example 24, 4-acetylphenyl 5-thio-β-D-xylopyranoside]	55%	100%	
CC(=O)c1cccc(O[C@@H]2SC[C@@H](O)[C@H](O)[C@H]2O)c1 [Example 25, 3-acetylphenyl 5-thio-β-D-xylopyranoside]	44.5%		
CC(=O)O[C@@H]1[C@@H](OC(C)=O)[C@H](OC(C)=O)CS[C@H]1Oc1cccc(C(C)=O)c1 [Example 25a, 3-acetylphenyl 2,3,4-tri-O-acetyl-5-thio-β-D-xylopyranoside]	52%		
N#Cc1ccccc1O[C@@H]1SC[C@@H](O)[C@H](O)[C@H]1O [Example 26, 2-cyanophenyl 5-thio-β-D-xylopyranoside]	63.5%	96%	
N#Cc1cccc(O[C@@H]2SC[C@@H](O)[C@H](O)[C@H]2O)c1 [Example 27, 3-cyanophenyl 5-thio-β-D-xylopyranoside]	66%	98%	
CC(=O)O[C@@H]1[C@@H](OC(C)=O)[C@H](OC(C)=O)CS[C@H]1Oc1cccc(C#N)c1 [Example 27a, 3-cyanophenyl 2,3,4-tri-O-acetyl-5-thio-β-D-xylopyranoside]	57%		
O=[N+]([O-])c1ccccc1O[C@@H]1SC[C@@H](O)[C@H](O)[C@H]1O [Example 28, 2-nitrophenyl 5-thio-β-D-xylopyranoside]	51%	94%	
CC(=O)c1ccccc1O[C@@H]1SC[C@@H](O)[C@H](O)[C@H]1O [Example 29, 2-acetylphenyl 5-thio-β-D-xylopyranoside]	26%		
N#Cc1ccc2cc(O[C@@H]3SC[C@@H](O)[C@H](O)[C@H]3O)ccc2c1 [Example 30, 2-(6-cyanonaphthalenyl) 5-thio-β-D-xylopyranoside]	51%		
N#Cc1c(O[C@@H]2SC[C@@H](O)[C@H](O)[C@H]2O)ccc2ccccc12 [Example 31, 2-(1-cyanonaphthalenyl) 5-thio-β-D-xylopyranoside]	28%		
CC(=O)O[C@@H]1[C@@H](OC(C)=O)[C@H](OC(C)=O)CS[C@H]1Oc1ccc2ccccc2c1C#N [Example 31a, 2-(1-cyanonaphthalenyl) 2,3,4-tri-O-acetyl-5-thio-β-D-xylopyranoside]	44.5%		
